# Results: PubChem BioAssay (NCI)
# Where “and” joins values, the source holds several entries; their conditions need not be identical. Equal values may be shown once.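 Growth conditions: 96-well plates. Treatment: test compound, 48 hours, 5 concentrations. Analysis: linear interpolation between bracketing concentrations; unreached endpoints set to highest concentration. The concentration for 50% growth inhibition is given as GI50. TGI marks complete inhibition of growth.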
# Assays:
# Assay in all cases: DTP human tumour cell line panel, 48 h
# IGROV1 ovarian = system: IGROV1 ovarian
# HCC-2998 colon = system: HCC-2998 colon
# MOLT-4 leukemia = system: MOLT-4 leukemia
# U251 CNS = system: U251 CNS
# SK-OV-3 ovarian = system: SK-OV-3 ovarian
# NCI-H226 lung = system: NCI-H226 lung
# HCT-15 colon = system: HCT-15 colon
# KM12 colon = system: KM12 colon
# OVCAR-4 ovarian = system: OVCAR-4 ovarian
# DU-145 prostate = system: DU-145 prostate
SMILES,GI50 (IGROV1 ovarian),TGI (IGROV1 ovarian),GI50 (HCC-2998 colon),TGI (HCC-2998 colon),GI50 (MOLT-4 leukemia),TGI (MOLT-4 leukemia),GI50 (U251 CNS),TGI (U251 CNS),GI50 (SK-OV-3 ovarian),TGI (SK-OV-3 ovarian),GI50 (NCI-H226 lung),TGI (NCI-H226 lung),GI50 (HCT-15 colon),TGI (HCT-15 colon),GI50 (KM12 colon),TGI (KM12 colon),GI50 (OVCAR-4 ovarian),TGI (OVCAR-4 ovarian),GI50 (DU-145 prostate),TGI (DU-145 prostate)
Clc1nc(Cl)c2ncn(C/C=C/Cn3cnc4c(Cl)nc(Cl)nc43)c2n1,11.8 µM,25.7 µM,16 µM,31.4 µM,17 µM,37.4 µM,16.8 µM,30.7 µM,44.3 µM,> 100 µM,22.3 µM,42.9 µM,16.1 µM,30.2 µM,17.3 µM,33.9 µM,20 µM,34.8 µM,15.2 µM,28.6 µM
O=[N+]([O-])c1cccc(/C=C/c2ccccn2)c1,28 µM,> 100 µM,44.9 µM,> 100 µM,> 100 µM,> 100 µM,6.68 µM,> 100 µM,33.6 µM,> 100 µM,33.5 µM,> 100 µM,4.84 µM,> 100 µM,24.2 µM,> 100 µM,18.8 µM,> 100 µM,35.6 µM,> 100 µM
C/C(=C1/N=C(c2ccccc2)OC1=O)c1ccc(C)cc1,,> 100 µM,,> 100 µM,,> 100 µM,,> 100 µM,,> 100 µM,,> 100 µM,,> 100 µM,,> 100 µM,,> 100 µM,,> 100 µM
CCOC(=O)/C(=C/c1ccccc1)C(=O)c1ccccc1,2.86 µM,8.05 µM,1.93 µM,3.69 µM,,,3.22 µM,13.6 µM,14.4 µM,27.9 µM,3.48 µM,18.9 µM,2.97 µM,11.2 µM,2.82 µM,7.54 µM,14.4 µM,35.4 µM,5.32 µM,17.4 µM
CN1C(=O)N(C)C2C1NN=c1s/c(=C\c3c[nH]c4ccccc34)c(=O)n12 (stereo not drawn),0.0654 µM,> 100 µM,0.0352 µM,> 100 µM,0.0644 µM,> 100 µM,0.0413 µM,> 100 µM,0.082 µM,> 100 µM,0.143 µM,> 100 µM,0.0365 µM,> 100 µM,0.04 µM,> 100 µM,,> 100 µM,0.0428 µM,> 28.9 µM
c1ccc(CCCNc2nnnc3ccccc23)cc1,,> 100 µM,,,,> 100 µM,,> 100 µM,,> 100 µM,,> 100 µM,,> 100 µM,,> 100 µM,,> 100 µM,,> 100 µM
COC1=C(C)C(=O)C2=C(C1=O)C(CO)N1C(C#N)C3CC4C(C1C2N1CCOC41)N3C (stereo not drawn),0.00217 µM and 0.0216 µM,,0.00395 µM,,,,,,,1.32 µM and 2.7 µM and 1.7 µM,,,0.00146 µM and 0.0129 µM,,0.0043 µM and 0.0305 µM,,0.128 µM and 0.0409 µM and 0.0516 µM,0.728 µM and 0.218 µM and 0.332 µM,0.0438 µM and 0.362 µM and 0.133 µM,14 µM
CCCCCCCCCCCCOC1C(CNCC2OC3OC(C)(C)OC3C2NC(=O)Nc2ccc(C(F)(F)F)cc2)OC2OC(C)(C)OC21 (stereo not drawn),6.77 µM,15.6 µM,3.05 µM,5.88 µM,,,4.63 µM,12.2 µM,9.06 µM,17.2 µM,7.59 µM,16.4 µM,7.47 µM,15 µM,3.7 µM,8.45 µM,5.43 µM,13.2 µM,5.03 µM,11.9 µM
